Test results as given in PMC9773353 (ACS Omega, 2022).
Values joined by “and” are separate entries in the source; they are usually repeats but may differ in a detail not shown here. Equal values may be shown once.

How the values were obtained:
BHK-21 normal cells = assay: MTT cell viability assay, BHK-21 normal cells; format: cell-based; settings: 100 μM, 24–48 h incubation; for % cell viability ± SD (BHK-21 cells): vs untreated control
HEK-293 T normal cells = assay: MTT cell viability assay, HEK-293 T normal cells; format: cell-based; settings: 100 μM, 24–48 h incubation, MTT; for % cell viability ± SD (HEK-293 T cells): vs untreated control
hCA II = hCA II (Homo sapiens, UniProt P00918); assay: Carbonic anhydrase inhibition assay; format: biochemical; settings: for inhibition of hCA-II in words: text grading of Table 4 results; for IC50: IC50 ± SEM hCA II, mean of three independent experiments
[1] = MTT cell viability assay, HEK-293 T normal cells; format: cell-based; settings: human, HEK-293 T normal cells; for viability at 100 µM: % cell viability ± SD (HEK-293 T cells), 24–48 h incubation, MTT, vs untreated control
hCA XII = hCA XII (Homo sapiens, UniProt O43570); assay: Carbonic anhydrase inhibition assay; format: biochemical
hCA XII, sequence (O43570 25-354): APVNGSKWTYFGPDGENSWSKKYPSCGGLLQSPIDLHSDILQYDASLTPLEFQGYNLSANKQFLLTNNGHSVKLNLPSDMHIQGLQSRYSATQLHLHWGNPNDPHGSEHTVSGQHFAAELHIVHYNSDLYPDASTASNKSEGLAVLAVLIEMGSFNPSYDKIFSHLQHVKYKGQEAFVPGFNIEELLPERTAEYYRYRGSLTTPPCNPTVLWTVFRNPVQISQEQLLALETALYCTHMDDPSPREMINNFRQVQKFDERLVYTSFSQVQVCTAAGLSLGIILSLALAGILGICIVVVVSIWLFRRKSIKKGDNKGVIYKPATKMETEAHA

hCA IX = hCA IX (Homo sapiens, UniProt Q16790); assay: biochemical

| Compound | % cytotoxicity ± SD (BHK-21 cells) (BHK-21 normal cells) [%] | % cell viability ± SD (BHK-21 cells) (BHK-21 normal cells) [%] | % cytotoxicity ± SD (HEK-293 T cells) (HEK-293 T normal cells) [%] | % cell viability ± SD (HEK-293 T cells) (HEK-293 T normal cells) [%] | inhibition of hCA-II in words (hCA II) | cytotoxicity at 100 µM [1] [%] | viability at 100 µM [1] [%] | IC50 (hCA II) | IC50 (hCA XII) [nM] | IC50 (hCA IX) [nM] |
| --- | --- | --- | --- | --- | --- | --- | --- | --- | --- | --- |
| N-((2-Hydroxyphenyl) carbamothioyl)-3,4-dimethoxybenzamide [Compound 20] | 54.6 ± 0.02 | 45 ± 0.09 | 13 ± 0.03 | 86 ± 0.07 | did not show any inhibition |  |  |  |  |  |
| Cc1cc(C)cc(C(=O)Nc2cc([N+](=O)[O-])ccc2Cl)c1 [Compound 14, N-(2-Chloro-5-nitrophenyl)-3,5-dimethylbenzamide] |  |  |  |  | moderate inhibition | 15 ± 0.4 | 85 ± 0.1 | 6490 ± 630 nM | 950 ± 80 |  |
| 3-(3-(3,4-Dimethoxybenzoyl) thioureido) Benzoic Acid [Compound 21] | 51.5 ± 0.06 | 48 ± 0.1 | 13 ± 0.05 | 86 ± 0.6 |  |  |  |  |  |  |
| COc1ccc(C(=O)NC(=S)Nc2ccc(C(=O)O)cc2)cc1OC [Compound 18, 4-(3-(3,4-Dimethoxybenzoyl)thioureido) Benzoic Acid] |  |  |  |  | moderate inhibition | 24 ± 0.07 | 75 | 4170 ± 290 nM | 1680 ± 150 | 210 ± 90 |
| Cc1cc(C)cc(C(=O)NC(=S)Nc2cc(Cl)c(O)c(Cl)c2)c1 [Compound 26, N-((3,5-Dichloro-4-hydroxyphenyl)carbamothioyl)-3,5-dimethylbenzamide] |  |  |  |  | moderate inhibition | 2 ± 0.06 | > 90 | 4450 ± 110 nM | 2020 ± 280 | 1280 ± 90 |
| Cc1cc(C)cc(C(=O)Nc2cc(Br)cc(C(F)(F)F)c2)c1 [Compound 15, N-(3-Bromo-5-(trifluoromethyl)phenyl)-3,5-dimethylbenzamide] |  |  |  |  |  | 18 ± 0.6 | 82 ± 0.6 | 1930 ± 150 nM | 1050 ± 110 |  |
| COc1ccc(C(=O)NC(=S)Nc2cc(Cl)c(S(N)(=O)=O)cc2S(N)(=O)=O)cc1OC [Compound 17, N-((5-Chloro-2,4-disulfamoylphenyl)carbamothioyl)-3,4-dimethoxybenzamide] |  |  |  |  | moderate inhibition | 3 ± 0.04 | 97 ± 0.3 | 11500 ± 160 nM |  | 1710 ± 650 |
| N-((3-Bromo-5-(trifluoromethyl) phenyl) carbamothioyl)-3,4-dimethoxybenzamide [Compound 23] | 65.0 ± 0.06 |  | 26 ± 0.06 |  | did not show any inhibition |  |  |  |  |  |
| Cc1ccc(C(=O)NC(=S)Nc2ccc(C(=O)O)cc2)c(C)c1 [Compound 25, 4-(3-(2,4-Dimethylbenzoyl)thioureido) Benzoic Acid] |  |  |  |  |  | 2 ± 0.02 | > 90 | 380 ± 10 nM |  | 9760 ± 1030 |
| Cc1cc(C)cc(C(=O)Nc2cc(Cl)c(S(N)(=O)=O)cc2S(N)(=O)=O)c1 [Compound 11, N-(5-Chloro-2,4-disulfamoylphenyl)-3,5-dimethylbenzamide] |  |  |  |  |  | 27 ± 0.06 | 72 ± 0.6 | 1190 nM and 1180 nM | 2990 ± 320 | 170 ± 50 |
| COc1ccc(C(=O)Nc2cc(Cl)c(O)c(Cl)c2)cc1OC [Compound 12, N-(3,5-Dichloro-4-hydroxyphenyl)-3,4-dimethoxybenzamide] |  |  |  |  | did not show any inhibition | 26.6 ± 0.06 | 73 ± 0.1 |  | 580 ± 60 |  |
| COc1ccc(C(=O)NC(=S)Nc2c(Cl)cc([N+](=O)[O-])cc2Br)cc1OC [Compound 19, N-((2-Bromo-6-chloro-4-nitrophenyl)carbamothioyl)-3,4-dimethoxybenzamide] |  |  |  |  |  | 50 ± 0.08 | 49 ± 0.6 | 725 nM and 720 nM |  | 1010 ± 50 |
| Cc1cc(C)cc(C(=O)NC(=S)Nc2ccccc2O)c1 [Compound 24, N-((2-Hydroxyphenyl)carbamothioyl)-3,5-dimethylbenzamide] |  |  |  |  |  | 18 ± 0.03 | 81 ± 0.1 | 1240 ± 960 nM | 9900 ± 660 | 1250 ± 20 |
| COc1ccc(C(=O)NC(=S)Nc2cc([N+](=O)[O-])ccc2Cl)cc1OC [Compound 22, N-((2-Chloro-5-nitrophenyl)carbamothioyl)-3,4-dimethoxybenzamide] |  |  |  |  |  | 9 ± 0.05 | > 90 | 260 ± 30 nM | 4290 ± 240 | 4930 ± 1830 |
| Cc1ccc(C(=O)Nc2cccc(C(=O)O)c2)c(C)c1 [Compound 13, 3-(2,4-Dimethylbenzamido) Benzoic Acid] |  |  |  |  |  | 14 ± 0.09 | 86 ± 0.6 |  |  | 10400 ± 1450 |
